Usually EC50 stands for the concentration at which the effect is half-maximal.

These results are taken from US20100174065A1, “COMPOUNDS” (GLAXO GROUP LIMITED, priority 2007, published 2010).

In one series the test system is circulating lymphocytes. The following applies: animals and man; cited from earlier work.
For series [1] the following is noted: clinical studies, first 24 hours of treatment; cited from earlier work.
The target of a further series is T1, human S1P1 receptor (Homo sapiens, UniProt P21453).
T1 construct: expressed in transfected cells; membranes
As to the kind of experiment: S1P1 GTPγS assay. It is filed as biochemical. The following applies: agonist activity, [35S]-GTPγS binding, human S1P1 rat hepatoma membranes. As for the experimental part:
(§1) For membrane preparations all steps were performed at 4° C. Rat hepatoma cells stably expressing the human S1P1 receptor or Rat Basophilic Leukaemia cells (RBL) stably expressing human S1P3 receptor were grown to 80% confluency before being harvested into 10 ml Phospho-Buffered Saline (PBS) and centrifuged at 1200 rpm for 5 minutes. After removal of the supernatant, the pellet was re-suspended and cells were homogenised within a glass Waring blender for 2 bursts of 15 secs in 200 mls of buffer (50 mM HEPES, 1 mM leupeptin, 25 μg/ml bacitracin, 1 mM EDTA, 1 mM PMSF, 2 μM pepstatin A). The blender was plunged into ice for 5 mins after the first burst and 10-40 mins after the final burst to allow foam to dissipate. The material was then spun at 500 g for 20 mins and the supernatant spun for 36 mins at 48,000 g. The pellet was resuspended in the same buffer as above but without PMSF and pepstatin A. The material was then forced through a 0.6 mm needle, made up to the required volume, (usually ×4 the volume of the original cell pellet), aliquoted and stored frozen at −80° C.
as §1, with “All” for “For membrane preparations all”, “Cells” for “Rat hepatoma cells stably expressing the human S1P1 receptor or Rat Basophilic Leukaemia cells (RBL) stably expressing human S1P3 receptor were grown to 80% confluency before being harvested into 10 ml Phospho-Buffered Saline (PBS) and centrifuged at 1200 rpm for 5 minutes. After removal of the supernatant, the pellet was re-suspended and cells”
Human S1P1 rat hepatoma membranes (1.5 μg/well) were adhered to a wheatgerm agglutinin (WGA)-coated scintillation proximity assay (SPA) beads (0.125 mg/well) in assay buffer (HEPES 20 mM, MgCl2 10 mM, NaCl 100 mM and pH adjusted to 7.4 using KOH 5M, GDP 10 μM FAC (final assay concentration) and saponin 90 μg/ml FAC was also added).
After 30 minutes pre-coupling on ice the bead and membrane suspension was dispensed into a white Greiner polypropylene LV384-well plate ([…]), containing 0.1 μl of the compound. 5 μl/well [^355]-GTPγS (0.5 nM final radioligand conc) made up in assay buffer was then added to agonist plates. The final assay cocktail (10.1 μl) was then centrifuged at 1000 rpm for 5 minutes then read immediately on a Viewlux reader.
All test compounds were dissolved in DMSO at a concentration of 10 mM and were prepared in 100% DMSO using a 1 in 4 dilution step to provide 11 point dose response curves. The dilutions were transferred to the assay plates ensuring that the DMSO concentration was constant across the plate for all assays.
All data was normalized to the mean of 16 high and 16 low control wells on each plate. A four parameter curve fit was then applied.
S1P1 expressing RH7777 membranes (1.5 μg/well) membranes (1.5 μg/well) were homogenised by passing through a 23G needle. These were then adhered to WGA-coated SPA beads (0.125 mg/well) in assay buffer (HEPES 20 mM, MgCl2 10 mM, NaCl 100 mM and pH adjusted to 7.4 using KOH 5M). GDP 10 μM FAC and saponin 90 μg/ml FAC were also added
After 30 minutes precoupling on ice, the bead and membrane suspension was dispensed into white Greiner polypropylene LV 384-well plates (5 μl/well), containing 0.1 μl of compound. 5 μl/well [^35S]-GTPγS (0.5 nM for S1P1 or 0.3 nM for S1P3 final radioligand concentration) made in assay buffer was then added to the plates. The final assay cocktail (10.1 μl) was then sealed, spun on a centrifuge, then read immediately on a Viewlux instrument.

Counter-ions that a name gives are not always drawn.

T1 sequence (P21453 whole entry): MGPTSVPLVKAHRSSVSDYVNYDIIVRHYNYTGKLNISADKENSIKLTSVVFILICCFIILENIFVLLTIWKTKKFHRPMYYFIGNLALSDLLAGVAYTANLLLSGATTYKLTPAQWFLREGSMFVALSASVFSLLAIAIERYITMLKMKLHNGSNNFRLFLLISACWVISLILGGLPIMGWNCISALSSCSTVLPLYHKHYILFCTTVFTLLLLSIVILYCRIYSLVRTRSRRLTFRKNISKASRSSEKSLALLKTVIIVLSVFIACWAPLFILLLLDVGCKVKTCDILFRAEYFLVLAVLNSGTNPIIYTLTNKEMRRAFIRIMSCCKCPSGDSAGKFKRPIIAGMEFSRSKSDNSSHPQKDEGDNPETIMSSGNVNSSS

For the compound `CCCCCCCCc1ccc(CCC(N)(CO)CO)cc1` [FTY720], in the series on circulating lymphocytes, the “effect on circulating lymphocytes” value was “reduce circulating lymphocytes”. Moreover, the bradycardia on treatment entry in series [1] is listed as “results in bradycardia”.
`CC(C)Oc1ccc(-c2nc(-c3cccc4c3OCCN(CCCCC(=O)O)C4)no2)cc1C#N` [Example 43, 5-[9-(5-{3-Cyano-4-[(1-methylethyl)oxy]phenyl}-1,2,4-oxadiazol-3-yl)-2,3-dihydro-1,4-benzoxazepin-4(5H)-yl]pentanoic acid]: the EC50 on human S1P1 receptor is less than 100 nM.
Regarding `CC(C)Oc1ccc(-c2nc(-c3ccc4c(c3)OCCNC4)no2)cc1C#N` [Example 41, 2-[(1-Methylethyl)oxy]-5-[3-(2,3,4,5-tetrahydro-1,4-benzoxazepin-8-yl)-1,2,4-oxadiazol-5-yl]benzonitrile], on human S1P1 receptor, the 50% effective concentration (EC50) is less than 100 nM.
In turn, `CC(C)Oc1ccc(-c2nc(-c3ccc4c(c3)CCNCC4)no2)cc1C(F)(F)F` [Example 19, 7-{5-[4-[(1-Methylethyl)oxy]-3-(trifluoromethyl)phenyl]-1,2,4-oxadiazol-3-yl}-2,3,4,5-tetrahydro-1H-3-benzazepine hydrochloride] showed a concentration giving a half-maximal response (EC50) on human S1P1 receptor of less than 100 nM.
Same read-out and setting: then `CC(C)Oc1ccc(-c2nc(-c3ccc4c(c3)CCN(CCCC(=O)O)CC4)no2)cc1C(F)(F)F` [Example 28, 4-(7-{5-[4-[(1-Methylethyl)oxy]-3-(trifluoromethyl)phenyl]-1,2,4-oxadiazol-3-yl}-1,2,4,5-tetrahydro-3H-3-benzazepin-3-yl)butanoic acid hydrochloride], with not above 10 nM.
